Consider two compounds from patent US20090264298A1, “Methods for enriching subpopulations” (AMBERGEN, Inc., priority 2007, published 2009).

Test [1] deals with T1, PKCα (Homo sapiens, UniProt P17252).
T1 construct: isolate and photo-release endogenous PKCa from the undiluted detergent fractionated HeLa cell extracts; endogenous in cells; host or cells: HeLa (ATCC)
The experiment in a line: PMA mediated PKCα sub-cellular translocation, measured by kinase activity after photocleavable antibody isolation. The class given is cell-based. The settings on record: cultured HeLa cells, 200 nM PMA for 5 min, detergent fractionated; based on kinase activity of isolated PKCα; n=4. Here is the method: FIG. 20. Phorbol ester (PMA) mediated protein kinase Cα (PKCα) sub-cellular translocation as measured by functional activity following isolation with photocleavable antibodies. Cultured HeLa cells were stimulated with 200 nM PMA for 5 min and detergent fractionated into the cytosol and membrane compartments prior to isolation and purification with the photocleavable antibodies.
Cultured HeLa cells (ATCC; Manassas, Va.) were stimulated for 5 min with 200 nM Phorbol-12-Myristate-13-Acetate (PMA; EMD Biosciences, Inc., San Diego, Calif.) and subsequently detergent fractionated into sub-cellular compartments according to reported procedures [Ramsby et al. (1994) Electrophoresis 15, 265-277; Ramsby & Makowski. (1999) Methods Mol Biol 112, 53-66; Chiang et al. (2000) J Biochem Biophys Methods 46, 53-68]. PMA is a potent activator of PKCα and is well known to cause translocation of the kinase from the cytosolic to the membrane sub-cellular compartments [Ross & Joyner. (1997) Endothelium 5, 321-332; Bazan & Rapoport. (1996) JPharmacol Toxicol Methods 36, 87-95; Yazlovitskaya & Melnykovych. (1995) Cancer Lett 88, 179-183]. […]

Test [2] concerns the target T2, MDM2 (Homo sapiens, UniProt Q00987).
T2 construct: polyhistidine (C); made in house; host or cells: rabbit reticulocyte lysate, cell-free (MDM2)
The experiment in a line: p53-MDM interaction assay, complexes pre-formed before contact photo-transfer. The class given is binding. The conditions noted are these: complex formed in solution, captured on beads, contact photo-transferred. Here is the method: All steps were performed at +4° C. or on an ice water bath and all reagents and samples were also kept under these conditions during the procedure. […] To facilitate addition of small bead volumes to the samples, the beads were initially prepared to a 10% (v/v) bead suspension with 5 mM DTT in PBS. The samples, now 80 μL each, were then mixed with 10 μL of the 10% (v/v) bead suspension corresponding to addition of 1 μL packed bead volume. After capture on the NeutrAvidin beads for 1 hr, beads were washed by mixing 3× briefly (briefly=5 sec vortex mix) in 400 bead volumes per wash of PBS pH 7.5 and 5 mM DTT. The washing procedure was performed in batch mode using 0.45 micron pore size, PVDF membrane, micro-centrifuge Filtration Devices to facilitate manipulation of the small volumes of affinity matrix (˜100 micron beads) and exchange the buffers (Ultrafree-MC Durapore Micro-centrifuge Filtration Devices, 400 μL capacity; Millipore, Billerica, Mass.). Prior to contact photo-transfer of the captured and isolated proteins, the washed pellet of 1 μL of NeutrAvidin agarose beads was suspended in a final volume of 50 μL of 50% glycerol and 5 mM DTT in PBS thereby resulting in a 2% (v/v) bead suspension.

T2 sequence (Q00987 whole entry): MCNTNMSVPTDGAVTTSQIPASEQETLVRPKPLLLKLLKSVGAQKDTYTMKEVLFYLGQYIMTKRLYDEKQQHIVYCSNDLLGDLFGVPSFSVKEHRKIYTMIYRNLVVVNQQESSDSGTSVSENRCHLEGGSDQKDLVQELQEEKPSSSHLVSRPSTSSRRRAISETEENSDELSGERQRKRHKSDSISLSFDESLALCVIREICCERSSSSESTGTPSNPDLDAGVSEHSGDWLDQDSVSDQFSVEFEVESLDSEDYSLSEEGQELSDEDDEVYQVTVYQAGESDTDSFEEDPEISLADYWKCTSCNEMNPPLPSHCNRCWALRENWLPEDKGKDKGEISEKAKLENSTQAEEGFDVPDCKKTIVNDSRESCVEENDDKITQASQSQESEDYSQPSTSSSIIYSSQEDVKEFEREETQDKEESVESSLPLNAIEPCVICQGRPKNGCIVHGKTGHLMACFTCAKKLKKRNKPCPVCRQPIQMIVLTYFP

Turning to `CCCCCCCCCCCCCC(=O)O[C@@H]1[C@@H](C)[C@@]2(O)[C@@H](C=C(CO)C[C@]3(O)C(=O)C(C)=C[C@@H]23)[C@@H]2C(C)(C)[C@]12OC(C)=O` [PMA, Phorbol-12-Myristate-13-Acetate], in test [1], the “PKCα distribution, cytosol” value came out at 16±4% and the “PKCα distribution, membrane” value is 84±3%. Regarding “p53 probe: cell-free expressed p53 labeled only with BODIPY-FL using BODIPY-FL-tRNA COMPLETE”, the “binding of cell-free expressed BODIPY-FL p53 probe to MDM bait” value in test [2] is given as “selective binding”.
